Each structure is given as a SMILES string.

This assay deals with T1, human A2a adenosine receptor (Homo sapiens, UniProt P29274).
T1 construct: purchased Perkin Elmer RBHA2aM400UA; host or cells: HEK293 or CHO cells (recombinant expression)
Nature of the assay: A2a binding affinity using radioligand binding, Method (A). Conditions: Method (A): [3H]SCH58261 filtration binding, membranes expressing human A2a. The source says: Method (A) describes the procedure used to measure A2a binding affinity using radioligand binding. Method (B) describes the procedure used to measure A2a binding affinity using SPA technology. The method used to measure A2b binding affinity is also described below. The method used to determine the A2a IC50 value reported for each compound in the table is indicated next to the reported value. The A2b IC50 value measured using the A2b binding affinity assay is shown in the table next to the compound under the corresponding A2a value.
The A2a receptor affinity binding assay measured the amount of binding of a tritiated ligand with high affinity for the A2a adenosine receptor to membranes made from HEK293 or CHO cells recombinantly expressing the human A2a adenosine receptor, in the presence of varying concentrations of a compound of the invention. The data were generated using either filtration binding or a homogenous scintillation proximity assay (SPA).
Method (A): Measurement of A2a Binding Affinity Using Radioligand Binding
148 μL (5 μg/mL) membranes (Perkin Elmer, Cat. No. RBHA2aM400UA) and 2 μL compounds of the invention to be tested (test compound) were transferred to individual wells of a 96-well polypropylene assay plate and incubated for 15 to 30 minutes at room temperature. [^3H] SCH58261 ((7-(2-phenylethyl)-5-amino-2-(2-furyl)-pyrazolo-[4,3-e]-1,2,4-triazolo[1,5-c]pyrimidine)) was diluted in assay buffer (50 mM Tris pH 7.4, 10 mM MgCl2, 0.005% Tween20) to a concentration of 4 nM and 50 μL transferred to each well of the assay plate. To define total and non-specific binding, wells containing 1% DMSO and 1 μM ZM241385 (Tocris Bioscience, Cat. No. 1036) respectively, were also included. The assay plate was incubated at room temperature for 60 minutes with agitation. Using a FilterMate Harvester® (Perkin Elmer), the contents of the assay plate were filtered through a UniFilter-96® PEI coated plate (Perkin Elmer Cat. No. 6005274 or 6005277). Filtering was achieved by aspirating the contents of the assay plate for 5 seconds, then washing and aspirating the contents three times with ice-cooled wash buffer (50 mM Tris-HCl pH 7.4, 150 mM NaCl) and allowing the vacuum manifold to dry the plate for 30 seconds. The filter plate was incubated for at least 1 hour at 55° C. and allowed to dry. The bottom of the filter plate was sealed with backing tape. 40 μL Ultima Gold™ (Perkin Elmer, Cat. No. 6013329) was added to each well of the filter plate and the top of the plate was sealed with TopSeal-A PLUS® clear plate seal (Perkin Elmer, Cat. No. 6050185). The plate was incubated for at least 20 minutes, and then the amount of radioactivity remaining in each well was determined using a TopCount® (Perkin Elmer) scintillation counter. After normalization to total and non-specific binding, the percent effect at each compound concentration was calculated. The plot of percent effect versus the log of compound concentration was analyzed electronically using a 4-parameter logistic fit based on the Levenberg-Marquardt algorithm to generate IC50 values.

T1 sequence (P29274 whole entry): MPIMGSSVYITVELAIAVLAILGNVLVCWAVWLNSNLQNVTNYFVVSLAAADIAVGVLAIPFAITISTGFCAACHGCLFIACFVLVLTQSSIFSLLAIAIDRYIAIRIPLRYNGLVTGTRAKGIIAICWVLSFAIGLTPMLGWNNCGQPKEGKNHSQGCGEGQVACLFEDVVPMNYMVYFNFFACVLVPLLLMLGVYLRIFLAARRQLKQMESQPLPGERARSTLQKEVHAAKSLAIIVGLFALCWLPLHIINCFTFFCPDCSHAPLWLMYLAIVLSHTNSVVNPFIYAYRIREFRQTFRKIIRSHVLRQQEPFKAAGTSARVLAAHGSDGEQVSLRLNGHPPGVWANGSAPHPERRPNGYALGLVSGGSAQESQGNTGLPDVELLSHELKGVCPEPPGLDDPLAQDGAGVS

`Cc1c(-c2ncco2)nc(N)n2nc([C@H]3C[C@@H](c4ccc(C(C)(C)O)cn4)C3)nc12` [Example 2.18, 2-(6-((1,3-cis)-3-(5-amino-8-methyl-7-(oxazol-2-yl)-[1,2,4]triazolo[1,5-c]pyrimidin-2-yl)cyclobutyl)pyridin-3-yl)propan-2-ol]: the IC50 stood at 3.7 nM.

Regarding `Nc1nc(-c2ccccc2)cc2nc([C@@H]3CC(F)(F)CN3C(=O)C3CC3)nn12` [Example 4.3, (S)-(2-(5-amino-7-phenyl-[1,2,4]triazolo[1,5-c]pyrimidin-2-yl)-4,4-difluoropyrrolidin-1-yl)(cyclopropyl)methanone], the IC50 came out at 14.9 nM.

In turn, `Nc1nc(-c2ncco2)cc2nc([C@@H]3CC(F)(F)CN3)nn12` [Example 2.2, (S)-2-(4,4-difluoropyrrolidin-2-yl)-7-(oxazol-2-yl)-[1,2,4]triazolo[1,5-c]pyrimidin-5-amine] came in with an IC50 of 143 nM.

In the case of `Cc1c(-c2ncco2)nc(N)n2nc([C@H]3C[C@H](c4ccc(C(C)(C)N)nc4)C3)nc12` [Example 10.6, 2-((1,3-trans)-3-(6-(2-aminopropan-2-yl)pyridin-3-yl)cyclobutyl)-8-methyl-7-(oxazol-2-yl)-[1,2,4]triazolo[1,5-c]pyrimidin-5-amine], the IC50 was found to be 15.7 nM.

Molecule `Nc1nc(-c2ccccc2)cc2nc([C@@H]3CC(F)(F)CN3)nn12` [Example 2.1, (S)-2-(4,4-difluoropyrrolidin-2-yl)-7-phenyl-[1,2,4]triazolo[1,5-c]pyrimidin-5-amine] returned an IC50 of 12 nM.

In turn, `Cc1c(-c2ncco2)nc(N)n2nc([C@H]3C[C@H](c4ccc(C(C)(C)N)cn4)C3)nc12` [Example 2.20, 2-((1,3-trans)-3-(5-(2-aminopropan-2-yl)pyridin-2-yl)cyclobutyl)-8-methyl-7-(oxazol-2-yl)[l,2,4]triazolo[1,5-c]pyrimidin-5-amine] yielded an IC50 of 9.9 nM.

As to `Cc1c(-c2ncco2)nc(N)n2nc([C@H]3C[C@@H](c4ccc(C(C)(C)N)cn4)C3)nc12` [Example 2.21, 2-((1,3-cis)-3-(5-(2-aminopropan-2-yl)pyridin-2-yl)cyclobutyl)-8-methyl-7-(oxazol-2-yl)-[1,2,4]triazolo[1,5-c]pyrimidin-5-amine], the IC50 came to 26.3 nM.

In the case of `Cc1c(-c2ncco2)nc(N)n2nc([C@H]3C[C@H](c4ccc(C(C)(C)O)cn4)C3)nc12` [Example 2.19, 2-(6-((1,3-trans)-3-(5-amino-8-methyl-7-(oxazol-2-yl)-[1,2,4]triazolo[1,5-c]pyrimidin-2-yl)cyclobutyl)pyridin-3-yl)propan-2-ol], the IC50 was determined as 5.2 nM.

The term IC50 denotes the midpoint of a concentration-inhibition curve. Lower therefore signals greater potency in that assay.

(Values after patent US12466831B2, “Substituted amino triazolopyrimidine and amino triazolopyrazine adenosine receptor antagonists, pharmaceutical compositions and their use” (Merck Sharp & Dohme LLC, priority 2018, dated 2025).)
